Molecular target: T1, TRPV3 in KU-19-19 cells (Homo sapiens, UniProt Q8NET8)
T1 construct: host or cells: KU-19-19
T1 sequence (Q8NET8 1-790): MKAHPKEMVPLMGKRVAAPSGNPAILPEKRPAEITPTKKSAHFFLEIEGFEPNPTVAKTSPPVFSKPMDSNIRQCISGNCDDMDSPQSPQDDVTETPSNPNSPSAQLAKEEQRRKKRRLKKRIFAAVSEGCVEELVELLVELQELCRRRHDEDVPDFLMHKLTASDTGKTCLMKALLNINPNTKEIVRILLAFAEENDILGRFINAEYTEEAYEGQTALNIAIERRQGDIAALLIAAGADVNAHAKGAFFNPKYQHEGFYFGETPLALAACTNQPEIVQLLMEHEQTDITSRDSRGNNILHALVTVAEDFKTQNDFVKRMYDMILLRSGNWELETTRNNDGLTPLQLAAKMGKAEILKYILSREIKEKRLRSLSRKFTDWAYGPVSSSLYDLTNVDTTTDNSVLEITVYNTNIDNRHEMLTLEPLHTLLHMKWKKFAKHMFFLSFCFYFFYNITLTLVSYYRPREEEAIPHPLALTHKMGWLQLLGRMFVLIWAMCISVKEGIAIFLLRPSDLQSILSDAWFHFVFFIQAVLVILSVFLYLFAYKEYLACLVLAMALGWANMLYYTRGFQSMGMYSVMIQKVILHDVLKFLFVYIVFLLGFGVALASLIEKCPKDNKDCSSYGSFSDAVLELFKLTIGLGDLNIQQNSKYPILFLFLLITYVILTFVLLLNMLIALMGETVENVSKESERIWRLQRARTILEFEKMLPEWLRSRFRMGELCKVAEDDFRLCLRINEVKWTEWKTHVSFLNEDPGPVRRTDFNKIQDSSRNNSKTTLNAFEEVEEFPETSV
Experiment: whole-cell patch-clamp recordings in KU-19-19 cells
Assay type: cell-based
Experimental: Supplementation of the cellular cholesterol content in KU-19-19 cells was performed by adding cholesterol-loaded methyl-β-cyclodextrin (MβCD) to the cells. Cholesterol was dissolved in ethanol (20 mg/mL) by heating at 65 °C for 15 minutes. The cholesterol solution was then added dropwise to a 250 mM MβCD solution prepared in phosphate-buffered solution (PBS; Sigma Aldrich) at a 1:4 (v/v) ratio, yielding a stock containing 200 mM MβCD-cholesterol. KU-19-19 cells were incubated for 15 minutes at 37 °C in HBS containing 2.5 mM MβCD-cholesterol. As a control, KU-19-19 cells were incubated in HBS without MβCD-cholesterol supplement under the same conditions. […]
Fig. 3 TRPV3 is functionally expressed in bladder cancer cells. (A–D) Activation of TRPV3 in KU-19-19 (A, B) and CAL-29 (C, D) bladder cancer cells by AV3-1, assessed by fura-2-based Ca^2+ assays. […] (B, D) Quantification of peak [Ca^2+]ᵢ responses from KU-19-19 (B) and CAL-29 (D) cells under the indicated treatment conditions. Statistical significance was determined using one-way ANOVA with Tukey post hoc analysis; ∗P < .05. […] Current amplitudes were recorded using voltage ramps from −100 mV to +100 mV (500-millisecond duration) such as in F and expressed as current density (pA/pF) measured at +100 mV and −100 mV. […] Statistical significance was determined using Kruskal-Wallis ANOVA followed by Conover test; ∗P < .05. […]

COC(=O)C12CN(Cc3ccccc3)CC1(C(=O)OC)CN(Cc1ccccc1)C2 (centres unmarked) [AV3-1]
currents under cholesterol-loaded conditions compared with untreated cells (50 μM AV3-1, KU-19-19 cells preincubated with 2.5 mM MβCD-cholesterol): substantially larger currents | TRPV3 currents in KU-19-19 cells (50 μM AV3-1, repeated applications): robustly and reproducibly activated TRPV3 currents

— PMC12881674, “Activation of TRPV3 channels in bladder cancer cells stimulates ATP release” (Molecular Pharmacology, 2025)
